Holding throughout (type): cell-based
One assay concerns Lactobacilli. The experiment in a line: growth of Lactobacilli in supplemented milk (general trials). The following applies: addition of ribonucleosides to milk. As to the method:
In order to find the identity of other stimulatory substances, several trials were performed with ribonucleotide precursors, that is free bases such as adenine, guanine, cytosine, thymine, and uracil, ribonucleosides such as adenosine, cytidine, uridine, and guanosine, and 2′-deoxyribonucleosides such as deoxyadenosine, deoxyguanosine, deoxycytidine, deoxyuridine and thymidine. These compounds were supplemented to milk as concentrated alkaline or neutral solutions at different concentrations.
This finding confirmed the hypothesis that the low level of purines in milk negatively affects bacterial growth therein. […] Without being bound by theory, it is believed that the high content of orotic acid allows the synthesis of pyrimidine bases. No significant differences in pH-values were detected by the addition of free bases and deoxyribonucleosides between aerobic and anaerobic conditions. […] The positive effect was observed particularly with the addition of ribonucleosides in anaerobic environment.
(§1) The growth results were estimated by cell counts and a final pH measurement performed after 24 hours incubation at 37 ° C. Rapid Analysis of Bacterial Impedance Technique (RABIT) (Don Whitley Scientific, West Yorkshire, UK) was used to perform trials with skim and whole UHT milk for 24 hours at 37° C.

A further assay concerns L. johnsonii ATCC 33200. Kind of assay: omission technique with RABIT in skim milk. The following applies: skim milk with four ribonucleosides and ferrous sulphate. As to the method: as §1
In order to determine those amino acids having an essential role for L. johnsonii growth in milk, the “omission technique” (Reiter, B. & Oram, J. D, I. Dairy Res, 29 (1962), 63-77) was applied by culturing the strain ATCC 33200^T in skim milk, adding four ribonucleosides and ferrous sulphate (positive control), supplemented with the mixture of 19 amino acids described above deprived of one particular component at each given time.

Another assay concerns L. johnsonii. Kind of assay: growth assay in milk, L. johnsonii (strain not specified). Here is the method: Skim milk (Difco) 10% w/v in sterile water and whole fat UHT milk (Parmalat, Italy) were used to perform the growth assays. The milk tubes were 1% inoculated from an overnight MRS culture washed twice and finally re-suspended with the same amount of sterile distilled water in order to avoid nutrient transfer via the medium.
Milk tubes were incubated aerobically in a thermostat (Sorvall Heraeus) at 37° C. for 24 hours, or anaerobically in an anaerobic incubator (Model 1024, Forma Scientific, USA) at 37° C. for 24 hours.
The chemicals supplemented to the milk were added as concentrated solutions prepared according to standard methods, i.e., the Merck Index instructions. The final pH of milk was adjusted to 6.8 after supplementation using an aqueous 4N sodium hydroxide solution. The initial pH of the 10% skim milk solution and whole fat UHT milk was 6.8 and 6.7, respectively.
as §1
A final pH of 4.1 was measured after amino acids supplementation, but the cell count was still not satisfactory. The cell count when a 10% skim milk with 19 amino acids added increased from 1.0×10^7 CFU/ml to 40×10^7 CFU/ml, which is a factor of 40 increase but is less than the factor of 300 increase observed with 10% skim milk and yeast extract.

Molecules are shown by their SMILES.

Take `Nc1ncnc2c1ncn2[C@@H]1O[C@H](CO)[C@@H](O)[C@H]1O` [adenosine]: in the assay on Lactobacilli, the “improvement of growth conditions in milk” value is “strongest effect”.
With `C[C@H](N)C(=O)O` [alanine], the “effect of amino acid on growth (RABIT, omission technique)” value (from here on “effect of amino acid on growth”) in the assay on L. johnsonii ATCC 33200 was “excellent results”.
`N[C@@H](CS)C(=O)O` [cysteine]: the “effect of amino acid on growth” value with L. johnsonii ATCC 33200 was “excellent results”. In addition, the “pH in the presence of cysteine” value with L. johnsonii (aerobic conditions) is on record as 3.9. The “pH in absence of cysteine” value in the assay on L. johnsonii (anaerobic conditions) amounted to 4.3.
Turning to `Nc1nc2c(ncn2[C@@H]2O[C@H](CO)[C@@H](O)[C@H]2O)c(=O)[nH]1` [guanosine], the “improvement of growth conditions in milk” value with Lactobacilli is on record as “strongest effect”.
For the molecule `CC[C@H](C)[C@H](N)C(=O)O` [isoleucine], in the assay on L. johnsonii ATCC 33200, the “effect of amino acid on growth” value is reported as “excellent results”.
With `N[C@@H](CO)C(=O)O` [serine], the “effect of amino acid on growth” value in the assay with L. johnsonii ATCC 33200 was “excellent results”.
Regarding `O=C(O)CS` [thioglycollic acid], in the assay with L. johnsonii (aerobic conditions, final concentration 0.5% v/v, replacing cysteine), the cell counts result is reported as “more than 100×10^7 CFU/ml”.

Source of the values: patent US6521443B1, “Growth medium for lactobacilli containing amino acids, nucleosides and iron” (Nestec S.A., priority 1999, dated 2003).
